Assay results published in US20210137966A1, “VIRUCIDAL COMPOUNDS AND USES THEREOF” (priority 2016, published 2021).

How the values were obtained:
LV-VSV-G = assay type: cell-based, VSV-G pseudotyped lentivirus
HSV-2 [1] = test: Evaluation of virucidal activity against HSV-2; assay type: cell-based; conditions: HSV-2, virucidal assay (FIG. 1/2 bottom)
Method: (§1) Evaluation of Virucidal Activity Against HSV-2, HPV-16
(§2) Viral titers were calculated at dilutions at which the nanoparticle was not effective

HPV-16 = test: Evaluation of virucidal activity against HPV-16; assay type: cell-based, human papillomavirus (HPV); conditions: FIG. 6
Method: as §1, §2

HSV-2 [2] = test: Inhibition assay HSV-2 (dose response, plaque reduction in Vero cells); assay type: cell-based; conditions: HSV-2, dose response assay (FIG. 1/2 top)
Method: The effect of cyclodextrins (CDs) on HSV infection was evaluated by a plaque reduction assay. Vero cells were pre-plated 24 h in advance in 24-well plates at a density of 10^5 cells. Increasing concentrations of cyclodextrins were incubated with HSV-2 (multiplicity of infection (MOI) 0.0003 plaque forming units (pfu)/cell) at 37° C. for 1 hour and then the mixtures were added to the cells. Following virus adsorption (2 h at 37° C.), the virus inoculum was removed, the cells were washed with medium and then overlaid with a medium containing 1.2% methylcellulose. After 24 h (HSV-2) of incubation at 37° C., cells were fixed and stained with 0.1% of crystal violet in 20% ethanol and viral plaques were counted. The concentration producing 50% reduction in plaque formation (IC50) was determined using the Prism software by comparing drug-treated and untreated wells.

Molecule | Virucidal assay, Dilutions: 1:10 (LV-VSV-G) | Virucidal assay, Dilutions: Stock (LV-VSV-G) | Virucidal effect against HSV-2 in virucidal assay (HSV-2 [1]) | Virucidal effect against Lenti virus (LV-VSV-G) | Virucidal effect against human papillomavirus (HPV) (HPV-16) | Inhibition of HSV-2 in dose response assay (HSV-2 [2])
O[C@@H]1[C@@H](O)[C@H]2O[C@H]3[C@H](O)[C@@H](O)[C@@H](O[C@H]4[C@H](O)[C@@H](O)[C@@H](O[C@H]5[C@H](O)[C@@H](O)[C@@H](O[C@H]6[C@H](O)[C@@H](O)[C@@H](O[C@H]7[C@H](O)[C@@H](O)[C@@H](O[C@H]8[C@H](O)[C@@H](O)[C@@H](O[C@@H]1[C@@H](CI)O2)O[C@@H]8CI)O[C@@H]7CI)O[C@@H]6CI)O[C@@H]5CI)O[C@@H]4CI)O[C@@H]3CI [CD1, Heptakis-6-iodo-6-deoxy-beta-cyclodextrin] | 27.38 | 85.49 |  |  |  | 
O=S(=O)(O)CCCCCCCCCCCSCC1OC2OC3C(CSCCCCCCCCCCCS(=O)(=O)O)OC(OC4C(CSCCCCCCCCCCCS(=O)(=O)O)OC(OC5C(CSCCCCCCCCCCCS(=O)(=O)O)OC(OC6C(CSCCCCCCCCCCCS(=O)(=O)O)OC(OC7C(CSCCCCCCCCCCCS(=O)(=O)O)OC(OC8C(CSCCCCCCCCCCCS(=O)(=O)O)OC(OC1C(O)C2O)C(O)C8O)C(O)C7O)C(O)C6O)C(O)C5O)C(O)C4O)C(O)C3O (stereo not shown) [CD2] |  |  | Virucidal effect observed | virucidal effect | virucidal effect | 
beta-cyclodextrin sulfonate [reference compound] |  |  | no virucidal effect is observed |  |  | Inhibition is observed at high concentrations
